Experiment [1] has as its system T1, poplar AOR (EC 1.3.1.74), alkenal/one oxidoreductase.
T1 construct: gene AORchl; native enzyme in desalted (Sephadex G-25 PD-10) crude leaf protein extract, not purified; AORchl predominantly expressed in leaf, AORcyt-II in stem; active isoenzyme not determined
Briefly: NADPH consumption at A340 nm, MVK varied, leaf protein extract. In kind it is biochemical, Populus x canescens. Particulars: co-substrate NADPH; apparent in vitro, crude leaf extract; 50 mM Tris/HCl, 20 mM MgCl2, 5% glycerol, 2 mM DTT; read-out: Michaelis-Menten constant.

Experiment [2] has the same test system. In words: NADPH consumption at A340 nm, NADPH varied, leaf protein extract. Particulars: co-substrate MVK; apparent in vitro, crude leaf extract; 50 mM Tris/HCl, 20 mM MgCl2, 5% glycerol, 2 mM DTT; read-out: Michaelis-Menten constant. In kind it is biochemical, Populus x canescens.

On to `C=CC(C)=O` [MVK], for which the Km in experiment [1] turned out to be 14.1 mM.

For `NC(=O)C1=CN([C@@H]2O[C@H](COP(=O)(O)OP(=O)(O)OC[C@H]3O[C@@H](n4cnc5c(N)ncnc54)[C@H](OP(=O)(O)O)[C@@H]3O)[C@@H](O)[C@H]2O)C=CC1` [NADPH], in experiment [2], the Km came out at 0.049 mM.
